Experimental data as given in ChEMBL document CHEMBL4308841, “Synthesis, in vitro antiproliferative activity, and kinase inhibitory effects of pyrazole-containing diarylureas and diarylamides” (Eur J Med Chem, 2018).

Assays:
MOLT-4 = assay: Growth inhibition of human MOLT4 cells incubated for 48 hrs by sulforhodamine B assay; format: functional, cell-based; settings: MOLT-4, 48 h
SR = assay: Growth inhibition of human SR cells incubated for 48 hrs by sulforhodamine B assay; format: functional, cell-based
NCI-H226 = assay: Growth inhibition of human NCI-H226 cells incubated for 48 hrs by sulforhodamine B assay; format: functional, cell-based; settings: NCI-H226, 48 h
SF-268 [1] = assay: Growth inhibition of human SF268 cells incubated for 48 hrs by sulforhodamine B assay; format: functional, cell-based; settings: SF-268, 48 h
SF-539 = assay: Growth inhibition of human SF539 cells incubated for 48 hrs by sulforhodamine B assay; format: functional, cell-based; settings: SF-539, 48 h
SK-MEL-2 = assay: Growth inhibition of human SK-MEL-2 cells incubated for 48 hrs by sulforhodamine B assay; format: functional, cell-based; settings: SK-MEL-2, 48 h
SK-MEL-5 [2] = assay: Growth inhibition of human SK-MEL-5 cells incubated for 48 hrs by sulforhodamine B assay; format: functional, cell-based; settings: SK-MEL-5, 48 h
786-0 = assay: Growth inhibition of human 786-0 cells incubated for 48 hrs by sulforhodamine B assay; format: functional, cell-based; settings: 786-0, 48 h
MCF7 = assay: Growth inhibition of human MCF7 cells incubated for 48 hrs by sulforhodamine B assay; format: functional, cell-based; settings: MCF7, 48 h
BT-549 [3] = assay: Growth inhibition of human BT549 cells incubated for 48 hrs by sulforhodamine B assay; format: functional, cell-based; settings: BT-549, 48 h
HOP-62 = assay: Growth inhibition of human HOP62 cells assessed as cell growth at 0.01 uM incubated for 48 hrs by sulforhodamine B assay relative to control; format: functional; settings: HOP-62, 48 h, read-out: Activity
U-251 = assay: Growth inhibition of human U251 cells assessed as cell growth at 0.01 uM incubated for 48 hrs by sulforhodamine B assay relative to control; format: functional; settings: U-251, 48 h, read-out: Activity
NCI-H460 = assay: Growth inhibition of human NCI-H460 cells assessed as cell growth at 0.1 uM incubated for 48 hrs by sulforhodamine B assay relative to control; format: functional; settings: NCI-H460, 48 h, read-out: Activity
M14 [4] = assay: Growth inhibition of human M14 cells assessed as cell growth at 0.1 uM incubated for 48 hrs by sulforhodamine B assay relative to control; format: functional; settings: M14, 48 h, read-out: Activity
UO-31 = assay: Growth inhibition of human UO31 cells assessed as cell growth at 0.1 uM incubated for 48 hrs by sulforhodamine B assay relative to control; format: functional; settings: UO-31, 48 h, read-out: Activity
SNB-75 = assay: Growth inhibition of human SNB75 cells assessed as cell growth at 1 uM incubated for 48 hrs by sulforhodamine B assay relative to control; format: functional; settings: SNB-75, 48 h, read-out: Activity
M14 [5] = assay: Growth inhibition of human M14 cells assessed as cell growth at 1 uM incubated for 48 hrs by sulforhodamine B assay relative to control; format: functional; settings: M14, 48 h, read-out: Activity
SK-MEL-5 [6] = assay: Growth inhibition of human SK-MEL-5 cells assessed as cell growth at 1 uM incubated for 48 hrs by sulforhodamine B assay relative to control; format: functional; settings: SK-MEL-5, 48 h, read-out: Activity
OVCAR-4 = assay: Growth inhibition of human OVCAR4 cells assessed as cell growth at 1 uM incubated for 48 hrs by sulforhodamine B assay relative to control; format: functional; settings: OVCAR-4, 48 h, read-out: Activity
OVCAR-5 = assay: Growth inhibition of human OVCAR5 cells assessed as cell growth at 1 uM incubated for 48 hrs by sulforhodamine B assay relative to control; format: functional; settings: OVCAR-5, 48 h, read-out: Activity
BT-549 [7] = assay: Growth inhibition of human BT549 cells assessed as cell growth at 1 uM incubated for 48 hrs by sulforhodamine B assay relative to control; format: functional; settings: BT-549, 48 h, read-out: Activity
A549 = assay: Growth inhibition of human A549/ATCC cells assessed as cell growth at 100 uM incubated for 48 hrs by sulforhodamine B assay relative to control; format: functional; settings: A549, 48 h, read-out: Activity
NCI-H522 = assay: Growth inhibition of human NCI-H522 cells assessed as cell growth at 100 uM incubated for 48 hrs by sulforhodamine B assay relative to control; format: functional; settings: NCI-H522, 48 h, read-out: Activity
SF-268 [8] = assay: Growth inhibition of human SF268 cells assessed as cell growth at 100 uM incubated for 48 hrs by sulforhodamine B assay relative to control; format: functional; settings: SF-268, 48 h, read-out: Activity
Malme-3M = assay: Growth inhibition of human MALME-3M cells assessed as cell growth at 100 uM incubated for 48 hrs by sulforhodamine B assay relative to control; format: functional; settings: read-out: Activity
SK-MEL-28 = assay: Growth inhibition of human SK-MEL-28 cells assessed as cell growth at 100 uM incubated for 48 hrs by sulforhodamine B assay relative to control; format: functional; settings: SK-MEL-28, 48 h, read-out: Activity
SN12C = assay: Growth inhibition of human SN12C cells assessed as cell growth at 100 uM incubated for 48 hrs by sulforhodamine B assay relative to control; format: functional; settings: read-out: Activity
[9] = read-out: LC50 (the source's name)
[10] = read-out: pLC50 (the source's name) (converted)

O=C(Nc1cccc(-n2cc(-c3ccncc3)c(-c3cc(O)cc(Cl)c3)n2)c1)Nc1ccc(Cl)c(C(F)(F)F)c1
GI50 (MOLT-4; read-out: GI50): 1.99 µM
CC50 (MOLT-4; [9]): > 100 µM
TGI (MOLT-4; read-out: TGI): 58.1 µM
GI50 (MOLT-4; read-out: pGI50 (converted)): 2 µM
CC50 (MOLT-4; [10]): > 100 µM
TGI (MOLT-4; read-out: pTGI (converted)): 5.75 µM
GI50 (SR; read-out: GI50): 2.01 µM
CC50 (SR; [9]): > 100 µM
TGI (SR; read-out: TGI): 51 µM
GI50 (SR; read-out: pGI50 (converted)): 2 µM
CC50 (SR; [10]): > 100 µM
TGI (SR; read-out: pTGI (converted)): 5.13 µM
GI50 (NCI-H226; read-out: GI50): 2.47 µM
LC50 (NCI-H226; read-out: LC50): > 100 µM
TGI (NCI-H226; read-out: TGI): 89.6 µM
GI50 (NCI-H226; read-out: pGI50 (converted)): 2.45 µM
LC50 (NCI-H226; read-out: pLC50 (converted)): > 100 µM
TGI (NCI-H226; read-out: pTGI (converted)): 8.91 µM
GI50 (SF-268 [1]; read-out: GI50): 3.1 µM
CC50 (SF-268 [1]; [9]): > 100 µM
TGI (SF-268 [1]; read-out: TGI): 18 µM
GI50 (SF-268 [1]; read-out: pGI50 (converted)): 3.09 µM
CC50 (SF-268 [1]; [10]): > 100 µM
TGI (SF-268 [1]; read-out: pTGI (converted)): 15.8 µM
GI50 (SF-539; read-out: GI50): 1.97 µM
CC50 (SF-539; [9]): 13.7 µM
TGI (SF-539; read-out: TGI): 44.9 µM
GI50 (SF-539; read-out: pGI50 (converted)): 1.95 µM
CC50 (SF-539; [10]): 13.8 µM
TGI (SF-539; read-out: pTGI (converted)): 4.47 µM
GI50 (SK-MEL-2; read-out: GI50): 2.2 µM
CC50 (SK-MEL-2; [9]): 94.2 µM
TGI (SK-MEL-2; read-out: TGI): 45.5 µM
GI50 (SK-MEL-2; read-out: pGI50 (converted)): 2.24 µM
CC50 (SK-MEL-2; [10]): 9.33 µM
TGI (SK-MEL-2; read-out: pTGI (converted)): 4.57 µM
GI50 (SK-MEL-5 [2]; read-out: GI50): 1.59 µM
CC50 (SK-MEL-5 [2]; [9]): 51.5 µM
TGI (SK-MEL-5 [2]; read-out: TGI): 32.3 µM
GI50 (SK-MEL-5 [2]; read-out: pGI50 (converted)): 1.7 µM
CC50 (SK-MEL-5 [2]; [10]): 6.17 µM
TGI (SK-MEL-5 [2]; read-out: pTGI (converted)): 3.24 µM
GI50 (786-0; read-out: GI50): 1.53 µM
CC50 (786-0; [9]): 5.2 µM
TGI (786-0; read-out: TGI): 44.5 µM
GI50 (786-0; read-out: pGI50 (converted)): 1.82 µM
CC50 (786-0; [10]): 89.1 µM
TGI (786-0; read-out: pTGI (converted)): 4.47 µM
GI50 (MCF7; read-out: GI50): 2.53 µM
LC50 (MCF7; read-out: LC50): > 100 µM
TGI (MCF7; read-out: TGI): 85.4 µM
GI50 (MCF7; read-out: pGI50 (converted)): 2.63 µM
LC50 (MCF7; read-out: pLC50 (converted)): > 100 µM
TGI (MCF7; read-out: pTGI (converted)): 8.51 µM
GI50 (BT-549 [3]; read-out: GI50): 2.25 µM
CC50 (BT-549 [3]; [9]): 23.7 µM
TGI (BT-549 [3]; read-out: TGI): 51.5 µM
GI50 (BT-549 [3]; read-out: pGI50 (converted)): 2.82 µM
CC50 (BT-549 [3]; [10]): 23.4 µM
TGI (BT-549 [3]; read-out: pTGI (converted)): 6.17 µM
growth at 0.01 µM (HOP-62): 99%
growth at 0.01 µM (U-251): 97%
growth at 0.1 µM (NCI-H460): 102%
growth at 0.1 µM (M14 [4]): 91%
growth at 0.1 µM (UO-31): 83%
growth at 1 µM (SNB-75): 54%
growth at 1 µM (M14 [5]): 83%
growth at 1 µM (SK-MEL-5 [6]): 90%
growth at 1 µM (OVCAR-4): 105%
growth at 1 µM (OVCAR-5): 109%
growth at 1 µM (BT-549 [7]): 90%
growth at 100 µM (A549): -45%
growth at 100 µM (NCI-H522): -95%
growth at 100 µM (SF-268 [8]): -27%
growth at 100 µM (Malme-3M): -91%
growth at 100 µM (SK-MEL-28): -89%
growth at 100 µM (SN12C): -32%
